Experimental data from article PMC11672400, “Synthesis, Spectroscopic Characterization, Structural Analysis, and Evaluation of Anti-Tumor, Antimicrobial, and Antibiofilm Activities of Halogenoaminopyrazoles Derivatives” (Antibiotics, 2024).
Converted amounts (≈) assume the structure as drawn. Read-outs that look alike come from different tables or passages of the source.

Tests used:
[1] = test system: Escherichia coli ATCC25922; assay: Antibiofilm assay (crystal violet), MBIC; type: cell-based; conditions: 37 °C; for minimal effective concentration: Escherichia coli, ATCC25922, 24 h, read-out: Minimum biofilm inhibition concentration (MBIC), Escherichia coli ATCC25922
Method: (§1) Microorganisms were grown in 96-well plates filled with nutrient broth along with test substances, followed by incubation at 37 °C for 24 h. Plates were cleaned and rinsed thrice using SPW solution (sterile physiological water). After that, the attached cells were treated with 110 μL of methanol for 5 min, and then the methanol was removed by turning it upside down. […] Once stained, the solution was removed, and the plates were washed with running tap water. […] The antimicrobial/antibiofilm activity of the compounds was evaluated against two antibiotics, commercial formulations of metronidazole and nitrofurantoin.

[2] = test system: Pseudomonas aeruginosa ATCC27853; assay: Antibiofilm assay (crystal violet), MBIC; type: cell-based; conditions: 37 °C; for Minimum biofilm inhibition concentration (MBIC), Pseudomonas aeruginosa ATCC27853: 24 h; for minimal effective concentration: Pseudomonas aeruginosa, ATCC27853, 24 h, read-out: Minimum biofilm inhibition concentration (MBIC), Pseudomonas aeruginosa ATCC27853
Method: as §1

[3] = test system: Staphylococcus aureus ATCC25923; assay: Antibiofilm assay (crystal violet), MBIC; type: cell-based; conditions: Staphylococcus aureus, ATCC25923; 24 h, 37 °C; read-out: Minimum biofilm inhibition concentration (MBIC), Staphylococcus aureus ATCC25923
Method: as §1

[4] = test system: Enterococcus faecalis ATCC29212; assay: Antibiofilm assay (crystal violet), MBIC; type: cell-based; conditions: 37 °C; for minimal effective concentration: Enterococcus faecalis, ATCC29212, 24 h, read-out: Minimum biofilm inhibition concentration (MBIC), Enterococcus faecalis ATCC29212
Method: as §1

[5] = MTT cell viability / cytotoxicity on normal fibroblasts; type: cell-based, mouse; conditions: mouse
Description: (§2) Merck chemicals were utilized.
(§3) Untreated cells were used as control, considered 100% viable cells.

[6] = test system: Escherichia coli ATCC25922; assay: MIC by serial microdilution in liquid medium; type: cell-based; conditions: 24 h, 37 °C; for MIC: Escherichia coli, ATCC25922, read-out: Minimum inhibitory concentration, Escherichia coli ATCC25922
Method: (§4) The minimum inhibitory concentrations (MIC) were determined by the serial microdilution method in a liquid medium (Tryptone Soy Broth), on 96-well plates. Serial binary dilutions of the compound stock solution (10 mg/mL in DMSO) were carried out in 90 µL of culture medium and 10 µL of 10^6 CFU/mL (Colony Forming Units) microbial suspension. Each test included a positive control (wells with culture medium and microbial suspension) and a negative control for medium sterility. After incubation at 37 °C for 24 h the plates were visually examined, and optical density was measured at 620 nm. […] The MIC value (µg/mL) for the chemical compound was determined by the concentration in the final well without bacterial growth. All experiments were performed in triplicate.

[7] = test system: Pseudomonas aeruginosa ATCC27853; assay: MIC by serial microdilution in liquid medium; type: cell-based; conditions: 24 h, 37 °C; for MIC: Pseudomonas aeruginosa, ATCC27853, read-out: Minimum inhibitory concentration, Pseudomonas aeruginosa ATCC27853
Method: as §4

[8] = test system: Staphylococcus aureus ATCC25923; assay: MIC by serial microdilution in liquid medium; type: cell-based; conditions: 24 h, 37 °C; for MIC: Staphylococcus aureus, ATCC25923, read-out: Minimum inhibitory concentration, Staphylococcus aureus ATCC25923
Method: as §4

[9] = test system: Enterococcus faecalis ATCC29212; assay: MIC by serial microdilution in liquid medium; type: cell-based; conditions: 24 h, 37 °C; for MIC: Enterococcus faecalis, ATCC29212, read-out: Minimum inhibitory concentration, Enterococcus faecalis ATCC29212
Method: as §4

[10] = test system: Escherichia coli ATCC25922; assay: Qualitative evaluation of antimicrobial activity (inhibition zone, spot on agar); type: cell-based; design: key: (+) inhibited bacterial growth; (-) did not inhibit bacterial growth; conditions: 0.06 g/2 mL DMSO, 5 µL spot
Method: (§5) For testing the antimicrobial/antibiofilm activity, the concentration of the studied compounds was identical to 0.06 g/2 mL DMSO. 0.5 Standard McFarland suspension was used, which was inoculated onto Mueller Hinton agar plates, (Remel, Lenexa, KS, USA), 5 µL of each compound was spotted and incubated overnight at 37 °C. Antimicrobial activity was observed as zones of inhibition formed around the spot.

[11] = test system: Pseudomonas aeruginosa ATCC27853; assay: as above; type: cell-based; design: key: (+) inhibited bacterial growth; (-) did not inhibit bacterial growth; conditions: 0.06 g/2 mL DMSO, 5 µL spot
Method: as §5

[12] = test system: Staphylococcus aureus ATCC25923; assay: as above; type: cell-based; design: key: (+) inhibited bacterial growth; (-) did not inhibit bacterial growth; conditions: 0.06 g/2 mL DMSO, 5 µL spot
Method: as §5

[13] = test system: Enterococcus faecalis ATCC29212; assay: as above; type: cell-based; design: key: (+) inhibited bacterial growth; (-) did not inhibit bacterial growth; conditions: 0.06 g/2 mL DMSO, 5 µL spot
Method: as §5

[14] = test system: HEp-2 epithelial tumor cells; assay: MTT cell viability / anti-tumor activity; conditions: Homo sapiens, read-out: Cell viability on Hep2 cells (%)
[15] = test system: NCTC (clone 929) mouse fibroblast cells; assay: MTT cell viability / cytotoxicity on normal fibroblasts; type: cell-based; conditions: Mus musculus, NCTC clone 929; NCTC normal fibroblasts, MTT, 48 h
Description: as §2, §3

[16] = NCTC clone 929 (L929) mouse fibroblast cells
[17] = read-out: Cell viability on NCTC cells (%)

Structure (SMILES) | melting point [°C] | minimal effective concentration [1] [µg/mL] | Minimum biofilm inhibition concentration (MBIC), Pseudomonas aeruginosa ATCC27853 [2] [µg/mL] | minimal effective concentration [2] [µg/mL] | minimal effective concentration [3] [µg/mL] | minimal effective concentration [4] [µg/mL] | MIC [6] [µg/mL] | MIC [7] [µg/mL] | MIC [8] [µg/mL] | MIC [9] [µg/mL] | viability at 3.1 µg/mL ([14]; HEp-2, 24 h) [%] | viability at 6.25 µg/mL ([14]; HEp-2, 24 h) [%] | viability at 12.5 µg/mL ([14]; HEp-2, 24 h) [%] | viability at 25 µg/mL ([14]; HEp-2, 24 h) [%] | viability at 50 µg/mL ([14]; HEp-2, 24 h) [%] | viability at 3.1 µg/mL ([14]; HEp-2, 48 h) [%] | viability at 6.25 µg/mL ([14]; HEp-2, 48 h) [%] | viability at 12.5 µg/mL ([14]; HEp-2, 48 h) [%] | viability at 25 µg/mL ([14]; HEp-2, 48 h) [%] | viability at 50 µg/mL ([14]; HEp-2, 48 h) [%] | further results
Cc1nn(CNc2ccc(I)cc2)c(C)c1[N+](=O)[O-] [4d, N-[(3,5-dimetyl-4-nitro-1H-pyrazol-1-yl)-methyl]-4-iodoaniline] | 91 to 92 | 930 ± 0.18 | 460 ± 0.05 | 460 | 930 ± 0.03 | 930 ± 0.53 | 930 ± 0.1 (≈ 2.5 mM) | 930 ± 0.02 (≈ 2.5 mM) | 930 ± 0.55 (≈ 2.5 mM) | 930 ± 0.53 (≈ 2.5 mM) | 105 ± 1.93 | 110 ± 2.64 | 113 ± 3.48 | 109 ± 2.75 | 106 ± 1.63 | 101 ± 3.72 | 110 ± 3.49 | 111 ± 2.8 | 101.6 ± 0.56 | 69 ± 0.81 | viability at 24 h, 3.1 µg/mL [5, 16]: 99.9 ± 2.31%; viability at 48 h, 3.1 µg/mL [5, 16]: 95.69 ± 0.8%; viability at 24 h, 6.25 µg/mL [5, 16]: 101 ± 2.24%; viability at 48 h, 6.25 µg/mL [5, 16]: 96.26 ± 0.78%; viability at 24 h, 12.5 µg/mL [5, 16]: 103 ± 3.44%; viability at 48 h, 12.5 µg/mL [5, 16]: 92.6 ± 1.4%; viability at 24 h, 25 µg/mL [5, 16]: 102 ± 1.07%; viability at 48 h, 25 µg/mL [5, 16]: 91.5 ± 1.41%; viability at 24 h, 50 µg/mL [5, 16]: 101 ± 2.55%; viability at 48 h, 50 µg/mL [5, 16]: 88.2 ± 2.1%; Qualitative antimicrobial activity, Escherichia coli ATCC25922 [10]: -; Qualitative antimicrobial activity, Pseudomonas aeruginosa ATCC27853 [11]: -; Qualitative antimicrobial activity, Staphylococcus aureus ATCC25923 [12]: -; Qualitative antimicrobial activity, Enterococcus faecalis ATCC29212 [13]: -
Cc1nn(CN(Cn2nc(C)c([N+](=O)[O-])c2C)c2ccc(Br)cc2)c(C)c1[N+](=O)[O-] [5c, N,N-bis-[(3,5-dimetyl-4-nitro-1H-pyrazol-1-yl)-methyl]-4-bromoaniline] | 133 to 135 | 3750 | 1870 ± 0.53 | 1870 | 1870 ± 0.15 | 1870 | 3750 (≈ 7.84 mM) | 3750 (≈ 7.84 mM) | 3750 (≈ 7.84 mM) | 3750 (≈ 7.84 mM) | 112 ± 2.32 | 114 ± 2.18 | 117 ± 2.83 | 113 ± 1.52 | 102 ± 2.71 | 96.9 ± 1.38 | 96.5 ± 1.58 | 89.2 ± 2.02 | 65.3 ± 2.09 | 50.2 ± 2.02 | Minimum biofilm inhibition concentration (MBIC), Escherichia coli ATCC25922 ([1]; 24 h): 3750 ± 0.48 µg/mL; Minimum biofilm inhibition concentration (MBIC), Enterococcus faecalis ATCC29212 ([4]; 24 h): 1870 ± 0.06 µg/mL; viability at 24 h, 3.1 µg/mL [5, 17]: 105 ± 1.96%; viability at 48 h, 3.1 µg/mL [5, 17]: 96.7 ± 2.96%; viability at 24 h, 6.25 µg/mL [5, 17]: 106 ± 2.3%; viability at 48 h, 6.25 µg/mL [5, 17]: 101 ± 3.63%; viability at 24 h, 12.5 µg/mL [5, 17]: 106 ± 3.74%; viability at 48 h, 12.5 µg/mL [5, 17]: 97.4 ± 1.99%; viability at 24 h, 25 µg/mL [5, 17]: 105 ± 1.88%; viability at 48 h, 25 µg/mL [5, 17]: 96.6 ± 2.02%; viability at 24 h, 50 µg/mL [5, 17]: 84 ± 2.12%; viability at 48 h, 50 µg/mL [5, 17]: 68 ± 1.61%; Minimum inhibitory concentration, Escherichia coli ATCC25922 [6]: 3750 ± 0.54 µg/mL (≈ 7.84 mM); Minimum inhibitory concentration, Pseudomonas aeruginosa ATCC27853 [7]: 3750 ± 0.51 µg/mL (≈ 7.84 mM); Minimum inhibitory concentration, Staphylococcus aureus ATCC25923 [8]: 3750 ± 0.04 µg/mL (≈ 7.84 mM); Minimum inhibitory concentration, Enterococcus faecalis ATCC29212 [9]: 3750 ± 0.08 µg/mL (≈ 7.84 mM); Qualitative antimicrobial activity, Escherichia coli ATCC25922 [10]: -; Qualitative antimicrobial activity, Pseudomonas aeruginosa ATCC27853 [11]: -; Qualitative antimicrobial activity, Staphylococcus aureus ATCC25923 [12]: -; Qualitative antimicrobial activity, Enterococcus faecalis ATCC29212 [13]: -
C[C@@H]1CC[C@@]2(OC1)O[C@H]1C[C@H]3[C@@H]4CC=C5C[C@@H](O[C@@H]6O[C@H](CO)[C@@H](O[C@@H]7O[C@@H](C)[C@H](O)[C@@H](O)[C@H]7O)[C@H](O)[C@H]6O[C@@H]6O[C@@H](C)[C@H](O)[C@@H](O)[C@H]6O)CC[C@]5(C)[C@H]4CC[C@]3(C)[C@H]1[C@@H]2C [dioscin, reference compound] |  |  |  |  |  |  |  |  |  |  | 97.09 ± 0.43 | 76.7 ± 2.01 | 58.92 ± 0.3 | 13.9 ± 0.18 | 11.5 ± 0.14 | 95.99 ± 0.53 | 62 ± 1.78 | 38 ± 2.09 | 7.49 ± 1.32 | 7.27 ± 1.14 | viability at 24 h, 3.1 µg/mL [5, 17]: 94.3 ± 2.49%; viability at 48 h, 3.1 µg/mL [5, 17]: 94.2 ± 1.66%; viability at 24 h, 6.25 µg/mL [5, 17]: 93 ± 3.24%; viability at 48 h, 6.25 µg/mL [5, 17]: 72.6 ± 1.67%; viability at 24 h, 12.5 µg/mL [5, 17]: 38.7 ± 2.55%; viability at 48 h, 12.5 µg/mL [5, 17]: 37 ± 2.55%; viability at 24 h, 25 µg/mL [5, 17]: 14.9 ± 2.63%; viability at 48 h, 25 µg/mL [5, 17]: 8.55 ± 1.26%; viability at 24 h, 50 µg/mL [5, 17]: 13.7 ± 2.06%; viability at 48 h, 50 µg/mL [5, 17]: 7.14 ± 1.28%; IC50 [15]: 15.8 ± 2.19 µg/mL (≈ 0.0182 mM)
